Data as given in ChEMBL document CHEMBL4049403, “Oligo-aspartic acid conjugates with benzo[c][2,6]naphthyridine-8-carboxylic acid scaffold as picomolar inhibitors of CK2” (Bioorg Med Chem, 2017).

Biological target: Albumin (Bos taurus, UniProt P02769)
Assay: Binding affinity to bovine serum albumin by fluorescence anisotropy based method
Type: ADME

Sequence of Albumin (P02769 whole entry): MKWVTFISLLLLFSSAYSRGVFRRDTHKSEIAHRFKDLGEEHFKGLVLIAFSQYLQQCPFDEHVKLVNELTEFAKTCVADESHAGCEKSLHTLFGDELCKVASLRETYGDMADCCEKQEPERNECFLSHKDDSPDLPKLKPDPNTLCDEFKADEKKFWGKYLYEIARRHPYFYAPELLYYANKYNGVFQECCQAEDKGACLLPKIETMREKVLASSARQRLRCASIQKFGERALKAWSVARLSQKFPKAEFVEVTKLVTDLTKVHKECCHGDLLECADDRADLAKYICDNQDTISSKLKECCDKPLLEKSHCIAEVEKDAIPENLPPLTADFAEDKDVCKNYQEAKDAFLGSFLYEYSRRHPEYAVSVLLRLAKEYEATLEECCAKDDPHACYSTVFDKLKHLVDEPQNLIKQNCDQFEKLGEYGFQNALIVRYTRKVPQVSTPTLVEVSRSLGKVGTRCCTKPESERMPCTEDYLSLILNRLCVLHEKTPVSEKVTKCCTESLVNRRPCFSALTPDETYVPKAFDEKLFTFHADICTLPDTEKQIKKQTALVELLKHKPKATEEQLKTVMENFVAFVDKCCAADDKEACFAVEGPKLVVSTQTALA

Row | Kd [nM] | SMILES
1 | 1700 | CCN1c2cc(S(=O)(=O)O)ccc2\C(=C/C=C/C=C/C2=[N+](CC)c3ccc(S(=O)(=O)[O-])cc3C2(C)C)C1(C)CCCC(=O)NCCCC[C@H](NC(=O)[C@H](CC(=O)O)NC(=O)[C@H](CC(=O)O)NC(=O)[C@H](CC(=O)O)NC(=O)[C@H](CC(=O)O)NC(=O)[C@H](CC(=O)O)NC(=O)[C@H](CC(=O)O)NC(=O)CCCCCCCn1cnc2c(Br)c(Br)c(Br)c(Br)c21)C(=O)O (some centres not stated)
2 | > 50000 | CCN1c2cc(S(=O)(=O)O)ccc2\C(=C/C=C/C=C/C2=[N+](CC)c3ccc(S(=O)(=O)[O-])cc3C2(C)C)C1(C)CCCC(=O)NCCCC[C@H](NC(=O)CCCCCCCCOc1nc2cc(C(=O)O)ccc2c2cnccc12)C(=O)N[C@@H](CC(=O)O)C(=O)N[C@@H](CC(=O)O)C(=O)N[C@@H](CC(=O)O)C(=O)N[C@@H](CC(=O)O)C(=O)O (some centres not stated)
